Source: patent US4268630A, “Microbiological production of ketones from C3 -C6 alkanes” (priority 1979, dated 1981)
Entries after “also recorded” stand apart in the source; their conditions may differ. Where two headings read alike, the source gives them in different places.

What was measured:
[1] = system: secondary alcohol dehydrogenase (SADH); test: Activity of purified secondary alcohol dehydrogenase (inhibition, substrate specificity, Km); type: biochemical, Pseudomonas sp. ATCC 21439; settings: for % inhibition of SADH activity: each inhibitor at a final concentration of 1 mM, spectrofluorometric; for relative percent rate of oxidation: 2-butanol = 100%
Method: Secondary alcohol dehydrogenase (SADH) from an obligate methanol utilizer, Pseudomonas sp. ATCC 21439 was purified as follows. […] 0.05 M sodium phosphate buffer, pH 7.0 with 0.5 mM dithiothretol (buffer A) and were disrupted sonically (5×1 min.). The crude extract was separated by centrifugation. The crude extract was heat-treated at 50° C. in a water bath for 10 minutes. The resulting precipitate was removed by centrifugation. To the supernatant solution, 25 ml of protamine sulfate solution (2% solution in 0.1 M Tris base) was added dropwise with continuous stirring. After standing for 30 minutes, the extract was centrifuged. The supernatant solution was fractionated with solid ammonium sulfate. The material precipitating between 30 and 60% saturation was collected and was dialized overnight against buffer A. The The dialized material was applied to a DEAE-cellulose column (3 cm by 35 cm) that had been equilibrated with buffer A. The secondary alcohol dehydrogenase activity was eluted in the void volume. This DEAE-cellulose eluate was concentrated by ammonium sulfate fractionation. Material precipitating between 30 and 50% ammonium sulfate saturation was collected by centrifugation and dialyzed overnight against A. This fraction was further washed and filtered through an Amicon unit with XM 50 membrane. The concentrated fraction (6 ml) inside the Amicon unit was applied to an Affi-Gel Blue column (0.8 cm×18 cm) which had been equilibrated with buffer A for affinity chromatography. The column was washed overnight with buffer A (0.18 ml./min.) and then was eluted with buffer A containing 5 mM NAD. Each 1 ml. fraction was collected.
The purified secondary alcohol dehydrogenase enzyme (SADH) may be used directly for converting C3 -C6 secondary alcohols to the corresponding methyl ketones by the procedures described above; however, a source of NAD^+ must be added to the reaction medium. One can determine the NAD-linked secondary alcohol dehydrogenase activity with a fluorescence spectrophotometer (Perkin Elmer, Model MPF 44A) by following the formation of reduced NAD (Ex 340 nm, Em 460 nm). The assay system (3 ml.) will typically contain: sodium phosphate buffer pH 7.0, 150 μmol; NAD 1.0 μmol; a given amount of enzyme preparation; and 20 μmol secondary alcohol. The reaction is started by the addition of secondary alcohol. One unit of SADH enzyme activity represents the reduction of one nmole NAD per minute.
The effect of metal-chelating agents and thioreagents on the activity of the purified SADH enzyme were studied. […] The possibility of ethanol or n-propanol as an inhibitor was studied.

[2] = system: cell-free secondary alcohol dehydrogenase (SADH) system; test: Cofactor requirement of cell-free soluble extracts oxidizing 2-butanol; type: biochemical
Method: To prepare the cell-free secondary alcohol dehydrogenase (SADH) system, the washed cells were disrupted with a Wave Energy Ultrasonic Oscillator, Model W201 (Wave Energy System, Inc., Newtown, Pa.) and centrifuged at 20,000× g. for 30 minutes. […] The enzyme activity was measured with a fluorescence spectrophotometer (Perkin Elmer, Model MPF 44A) by following the formation of reduced NAD (EX 340 nm, Em 460 nm). The formation of reduced NAD was also followed with an absorption spectrophotometer at 340 nm. The assay system (3 ml.) contained: potassium phosphate buffer pH 7.0; 150 μmol.; NAD 1 μmol.; a given amount of enzyme preparation; and secondary alcohol 10 μmol. The reaction was started by the addition of substrate. One unit of enzyme activity represents the reduction of one μmole NAD per minute. Protein concentrations were determined by the Lowry method (J. Biol. Chem., 193: 255-275 (1951)).

[3] = system: secondary alcohol dehydrogenase; test: Activity of purified yeast-derived secondary alcohol dehydrogenase; type: biochemical, Pichia sp. NRRL Y-11,328; settings: for inhibition of secondary alcohol dehydrogenase activity (in words): primary alcohols tested at 10^-3 M
[4] = system: cell suspensions of C1-utilizers; test: Production of 2-butanone from 2-butanol / sec-alcohol oxidation by cell suspensions of the strains tested; type: cell-based; settings: for inhibition of production of 2-butanone from 2-butanol (in words): cell suspensions of the strains tested
From the text: The substrate specificity for the oxidation of C3 -C6 secondary alcohols by the strains of C1 -utilizers was studied.

[5] = system: cell-free particulate fraction of methane-grown methylotrophs; test: Conversion of n-alkanes to sec. alcohols by cell-free particulate fractions: inhibitors and electron donors; type: biochemical
From the text: The conditions for preparing the cell suspensions or the cell-free particulate fractions from methane-grown methylotroph microorganisms is the same as described above.

[6] = system: Methylococcus capsulatus CRL M1 NRRL B-11,219; test: Conversion of n-alkanes to oxidation products by cell suspensions; type: cell-based; settings: methane-grown cell suspension, pH 7.0
Method: (§1) ^(a) Cell-suspensions of methanegrown methylotroph microorganisms
(§2) indicated in 0.15 M phosphate buffer, pH 7.0 incubated in the alkanes as
(§3) indicated at 3° C. The oxidation products were determined by g.l.c

[7] = system: Methylosinus trichosporium OB3b NRRL B-11,196; test: as above; type: cell-based; settings: methane-grown cell suspension, pH 7.0
Method: as §1, §2, §3

O=Cc1ccccc1 [benzaldehyde]
substrate specificity of purified SADH (in words) [1]: not oxidized

NC(=O)C1=CN([C@@H]2O[C@H](COP(=O)(O)OP(=O)(O)OC[C@H]3O[C@@H](n4cnc5c(N)ncnc54)[C@H](OP(=O)(O)O)[C@@H]3O)[C@@H](O)[C@H]2O)C=CC1 [NAD(P)H]
effectiveness as cofactor for oxidation of 2-butanol [2]: not effective

CCCCCC(C)O (stereo not drawn) [2-heptanol]
substrate specificity of purified yeast secondary alcohol dehydrogenase (in words) ([3]; spectrophotometric): not oxidized | substrate specificity: rate of oxidation of secondary alcohols (in words) ([4]; cell suspensions of C1-utilizers): oxidized at a much slower rate

C=CC [propylene]
inhibition of conversion of n-alkanes to sec. alcohols (in words) [5]: inhibited | inhibition of conversion of n-alkanes to sec. alcohols (in words) ([5]; listed as Propylene): inhibit

c1cnc2c(c1)ccc1cccnc12 [1,10-phenanthroline, reference compound]
% inhibition of SADH activity [1]: 95% | inhibition of secondary alcohol dehydrogenase activity (in words) [3]: strongly inhibited | inhibition of production of 2-butanone from 2-butanol (in words) [4]: inhibited | inhibition of conversion of n-alkanes to sec. alcohols (in words) [5]: inhibited

[Fe+2] [ferrous, reference compound]
% inhibition of SADH activity [1]: 50%

CC(C)CO [isobutanol]
substrate specificity of purified SADH (in words) [1]: not oxidized

[Cu+2] [cupric, reference compound]
% inhibition of SADH activity [1]: 25%

CC=O [acetaldehyde]
substrate specificity of purified SADH (in words) [1]: lower rate | relative percent rate of oxidation [1]: 4%

CCCCCO [pentan-1-ol]
substrate specificity of purified yeast secondary alcohol dehydrogenase (in words) ([3]; spectrophotometric): not oxidized

Oc1cccc2cccnc12 [8-hydroxyquinoline]
inhibition of conversion of n-alkanes to sec. alcohols (in words) [5]: inhibited

OC1CCCCC1 [cyclohexanol]
substrate specificity of purified SADH (in words) [1]: lower rate | relative percent rate of oxidation [1]: 4%

NC(=O)C1=CN([C@@H]2O[C@H](COP(=O)(O)OP(=O)(O)OC[C@H]3O[C@@H](n4cnc5c(N)ncnc54)[C@H](O)[C@@H]3O)[C@@H](O)[C@H]2O)C=CC1 [NADH, reduced nicotinamide adenine dinucleotide]
use as electron donor for hydroxylation of n-alkanes [5]: requires

c1ccc(-c2ccccn2)nc1 [α,α-bipyridyl, reference compound]
% inhibition of SADH activity [1]: 70% | inhibition of production of 2-butanone from 2-butanol (in words) [4]: inhibited | inhibition of conversion of n-alkanes to sec. alcohols (in words) [5]: inhibited

cytochrome c [reference compound]
ability to act as electron acceptor/carrier ([3]; purified enzyme): could not act as electron carrier

Oc1ccccc1 [phenol]
substrate specificity of purified SADH (in words) [1]: not oxidized

O=[N+]([O-])[O-].[Ag+] [silver nitrate, reference compound]
inhibition of secondary alcohol dehydrogenase activity (in words) [3]: inhibited

CCCCO [butan-1-ol]
substrate specificity of purified yeast secondary alcohol dehydrogenase (in words) [3]: not oxidized

[N-]=[N+]=[N-] [Sodium azide, reference compound]
% inhibition of SADH activity [1]: 10%

[Ni+2] [nickel, reference compound]
% inhibition of SADH activity [1]: 20%

CC(O)CCO (stereo not drawn) [butane 1,3-diol]
substrate specificity of purified SADH (in words) [1]: lower rate | relative percent rate of oxidation [1]: 2% | substrate specificity of purified yeast secondary alcohol dehydrogenase (in words) ([3]; spectrophotometric): not oxidized

CCN1C(=O)C=CC1=O [N-ethylmalemide, N-ethylmaleimide, reference compound]
% inhibition of SADH activity [1]: 6% | inhibition of SADH activity (in words) ([1]; purified SADH): not inhibited

[Fe+3] [ferric, reference compound]
% inhibition of SADH activity [1]: 35%

CCC(O)CO (stereo not drawn) [butane 1,2-diol]
substrate specificity of purified SADH (in words) [1]: not oxidized | substrate specificity of purified yeast secondary alcohol dehydrogenase (in words) ([3]; spectrophotometric): not oxidized

c1c[nH]cn1 [imidiazole, reference compound]
inhibition of secondary alcohol dehydrogenase activity (in words) [3]: strongly inhibited

NNC(N)=S [thiosemicarbazide]
inhibition of conversion of n-alkanes to sec. alcohols (in words) [5]: inhibited

O=C(O)CI [iodoacetic acid, reference compound]
inhibition of SADH activity (in words) [1]: not inhibited

CC [Ethane]
Conversion Rate to product Ethanol [6]: 2.0 μmoles/hr./mg./protein | Conversion Rate to product Ethanol [7]: 1.3 μmoles/hr./mg./protein

[Zn+2] [Zn^++, reference compound]
stimulation of SADH activity by exogenous zinc [1]: did not stimulate | % inhibition of SADH activity [1]: 0%

CO [methanol]
substrate specificity of purified yeast secondary alcohol dehydrogenase (in words) ([3]; spectrophotometric): not oxidized

CCCO [propanol]
substrate specificity of purified SADH (in words) [1]: lower rate | relative percent rate of oxidation [1]: 2%

[Co+2] [Co^++, reference compound]
% inhibition of SADH activity [1]: 0%

C [Methane]
Conversion Rate to product Methanol [6]: 2.5 μmoles/hr./mg./protein | Conversion Rate to product Methanol ([7]; […] phosphate buffer): 1.5 μmoles/hr./mg./protein

N#C[S][Hg][S]C#N [mercuric thiocyanate, reference compound]
inhibition of secondary alcohol dehydrogenase activity (in words) [3]: inhibited

O=C(O)CCC(=O)O [succinic acid]
substrate specificity of purified SADH (in words) [1]: not oxidized

O=S(=O)([O-])[O-].[Cu+2] [cupric sulfate, reference compound]
inhibition of secondary alcohol dehydrogenase activity (in words) [3]: inhibited

CC(O)CO (stereo not drawn) [1,2-propandiol]
substrate specificity of purified yeast secondary alcohol dehydrogenase (in words) ([3]; spectrophotometric): not oxidized

NC(N)=S [Thiourea, reference compound]
% inhibition of SADH activity [1]: 0% | inhibition of SADH activity (in words) ([1]; purified SADH): not inhibited | inhibition of production of 2-butanone from 2-butanol (in words) [4]: not inhibited | inhibition of conversion of n-alkanes to sec. alcohols (in words) [5]: inhibited

C=O [formaldehyde]
substrate specificity of purified SADH (in words) [1]: not oxidized

O=C(O)c1cc(SSc2ccc([N+](=O)[O-])c(C(=O)O)c2)ccc1[N+](=O)[O-] [5,5'-dithiobis(2-nitrobenzoic acid), reference compound]
% inhibition of SADH activity [1]: 100% | inhibition of SADH activity (in words) ([1]; purified SADH): inhibited

CCC(C)=O [2-Butanone, 2-butanone]
inhibition of SADH activity (in words) ([1]; purified SADH): inhibited | product inhibition of 2-butanone production ([4]; exogenously supplied 2-butanone (8 μmoles) with viable cell suspensions): No product (2-butanone) inhibition; also recorded: did not inhibit

NC(=O)C1=CN([C@@H]2O[C@H](COP(=O)(O)OP(=O)(O)OC[C@H]3O[C@@H](n4cnc5c(N)ncnc54)[C@H](OP(=O)(O)O)[C@@H]3O)[C@@H](O)[C@H]2O)C=CC1 [NADPH, reduced nicotinamide adenine dinucleotide phosphate]
use as electron donor for hydroxylation of n-alkanes [5]: could also be utilized as an electron donor

[Mn+2] [Mn^++, reference compound]
% inhibition of SADH activity [1]: 0%

CCCCCCC(C)O (stereo not drawn) [2-octanol]
substrate specificity of purified yeast secondary alcohol dehydrogenase (in words) ([3]; spectrophotometric): not oxidized

[Mg+2] [Mg^++, reference compound]
% inhibition of SADH activity [1]: 0%

O=C(O)c1cc[c]([Hg+])cc1.[OH-] [p-hydroxymercuribenzoate, reference compound]
% inhibition of SADH activity [1]: 100% | inhibition of secondary alcohol dehydrogenase activity (in words) [3]: strongly inhibited

CC(O)C(C)O (stereo not drawn) [butane 2,3-diol]
substrate specificity of purified SADH (in words) [1]: lower rate | relative percent rate of oxidation [1]: 2.5%

CCCO [n-propanol]
inhibition of SADH activity (in words) [1]: did not inhibit | substrate specificity of purified yeast secondary alcohol dehydrogenase (in words) [3]: not oxidized

CCO [ethanol]
inhibition of SADH activity (in words) [1]: did not inhibit | substrate specificity of purified yeast secondary alcohol dehydrogenase (in words) [3]: not oxidized
